Laboratory results taken from patent publication US20250136583A1, “NOVEL SALT FORMS OF ISOCHROMAN-IMIDAZOLE STRUCTURED ALPHA-2A ADRENOCEPTOR AGONIST” (ORION CORPORATION, priority 2022, published 2025).
Counter-ions that a name gives are not always drawn.

How the values were obtained:
[1] = Physical stability of the salts (storage at elevated temperature and relative humidity, re-analysis by XRPD); assay type: physicochemical; conditions: for Form after stability / Physical stability: solids exposed for 2 or 3 weeks at 40° C. and 70-80% relative humidity; for Form after stability: XRPD; for Physical stability: re-analyzed by XRPD
Procedure: XRPD measurements were performed with the X-ray powder diffractometer Bruker D8 Advance at room temperature, using a copper filled X-ray tube (40 kV×40 mA) as the X-ray source, CuKα (λ=1.5418 Å), a 0.6 mm divergence slit, 2.5° Soller slits on both the primary and secondary beams and the 1-dimensional LynxEye detector (with aperture angle of 2.91593°). Data collection was done in the range of 3.8-33° 2θ with 0.02° increments, at a scan speed of 0.3°/s.
A stability test was carried out for all crystalline salt forms resulted from the salt screen by exposing the solids for 2 or 3 weeks at 40° C. and 70-80% relative humidity. After exposure, the solids were re-analyzed by XRPD, followed by physical stability assessment.

[2] = Chemical stability of the salts (stress at 60° C. and 75% relative humidity, purity by UHPLC); assay type: physicochemical; conditions: for Purity (%) of 1 day stress samples / Difference between reference and 1 day stressed sample: 1 day at 60° C. and 75% relative humidity; for Purity (%) of 1 day stress samples / Purity (%) of 14 day stress samples / Purity (%) of reference: UHPLC; for Difference between reference and 1 day stressed sample / Difference between reference and 14 day stressed sample: purity difference, in %; for Purity (%) of 14 day stress samples / Difference between reference and 14 day stressed sample: 14 days at 60° C. and 75% relative humidity; for Purity (%) of reference: unstressed sample; for Chemical stability (in words): summary statement
Procedure: The purity analyses were performed using Agilent UHPLC equipment with PDA/DAD detector at 210 nm wavelength and reverse phase liquid chromatography column Acquity UPLC HSS T3, 100×3.0 mm, 1.8 μm (Waters). The chromatography was performed with gradient run using acetonitrile and phosphate buffer (pH 3.0) as eluents.
The chemical stability of various salts of compound (I) was determined by stressing the salts for 1 and 14 days at 60° C. and 75% relative humidity. The unstressed sample was used as an reference. The purity of the samples were analyzed using UHPLC, and the purity difference between the stressed and reference was calculated.

[3] = listed as 1-Hydroxy-2-naphtoic acid salt

Structure (SMILES) | Form after stability [1] | Physical stability [1] | Purity (%) of 1 day stress samples [2] | Difference between reference and 1 day stressed sample [2] | Purity (%) of 14 day stress samples [2] | Difference between reference and 14 day stressed sample [2] | Purity (%) of reference [2] | further results
COc1cccc2c1CCOC2C1=NCCN1 (centres unmarked) [1-Hydroxy-2-napthoic acid salt Form 1, 2-(5-methoxyisochroman-1-yl)-4,5-dihydro-1H-imidazole] | Form 1 | Stable | – | – | – | – | – | Physical stability ([1]; listed as 1-hydroxy-2-napthoic acid): remained stable; Purity (%) of 1 day stress samples [2, 3]: 95.4%; Difference between reference and 1 day stressed sample [2, 3]: 3.5; Purity (%) of 14 day stress samples [2, 3]: 0.6%; Difference between reference and 14 day stressed sample [2, 3]: 98.3; Purity (%) of reference [2, 3]: 98.9%
COc1cccc2c1CCOC2C1=NCCN1 (centres unmarked) [Glycolic acid salt Form 1, 2-(5-methoxyisochroman-1-yl)-4,5-dihydro-1H-imidazole] | Form 1 | Stable | 99.3% | 0.5 | 17.6% | 82.2 | 99.8% | Physical stability ([1]; listed as glycolic acid): remained stable
COc1cccc2c1CCOC2C1=NCCN1 (centres unmarked) [Cyclamic acid salt Form 1, 2-(5-methoxyisochroman-1-yl)-4,5-dihydro-1H-imidazole] | Form 2 | Unstable | – | – | – | – | – | Form after stability ([1]; listed as cyclamic acid (form 1)): completely
COc1cccc2c1CCOC2C1=NCCN1 [L-Aspartic acid salt Form 1, 2-(5-methoxyisochroman-1-yl)-4,5-dihydro-1H-imidazole] | Form 1 + amorphous | Unstable | – | – | – | – | – | Form after stability ([1]; listed as L-aspartic acid): an amorphous phase with characteristic peaks of the counter-ion
COc1cccc2c1CCOC2C1=NCCN1 (centres unmarked) [Oxalic acid salt Form 1, 2-(5-methoxyisochroman-1-yl)-4,5-dihydro-1H-imidazole] | Form 1 | Stable | 97.9% | −0.2 | 97.9% | −0.2 | 97.7% | Physical stability ([1]; listed as oxalic acid): remained stable; Chemical stability (in words) [2]: good chemical stability
COc1cccc2c1CCOC2C1=NCCN1 (centres unmarked) [Mucic acid salt Form 1, 2-(5-methoxyisochroman-1-yl)-4,5-dihydro-1H-imidazole] | Form 1 | Stable | 97.7% | 1.6 | 35.6% | 63.6 | 99.2% | Physical stability ([1]; listed as mucic acid): remained stable
COc1cccc2c1CCOC2C1=NCCN1 (centres unmarked) [Hydrobromic acid salt Form 1, 2-(5-methoxyisochroman-1-yl)-4,5-dihydro-1H-imidazole] | Form 1 | Stable | 98.1% | 0.2 | 98.2% | 0.1 | 98.3% | Physical stability ([1]; listed as hydrobromic acid): remained stable; Chemical stability (in words) [2]: good chemical stability
COc1cccc2c1CCOC2C1=NCCN1 (centres unmarked) [Methanesulfonic acid salt Form 1, 2-(5-methoxyisochroman-1-yl)-4,5-dihydro-1H-imidazole] | Amorphous | Unstable | – | – | – | – | – | Form after stability ([1]; listed as methanesulfonic acid): turned into amorphous phase
COc1cccc2c1CCOC2C1=NCCN1 (centres unmarked) [Maleic acid salt Form 1, 2-(5-methoxyisochroman-1-yl)-4,5-dihydro-1H-imidazole] | Form 1 | Stable | 64.0% | 35.7 | 33.3% | 66.4 | 99.6% | Physical stability ([1]; listed as maleic acid): remained stable
COc1cccc2c1CCOC2C1=NCCN1 (centres unmarked) [Cyclamic acid salt Form 2, 2-(5-methoxyisochroman-1-yl)-4,5-dihydro-1H-imidazole] | – | – | – | – | – | – | – | Form after stability ([1]; listed as cyclamic acid (form 2)): extra peaks in the XRPD pattern
COc1cccc2c1CCOC2C1=NCCN1 (racemic) [D,L-Lactic acid salt Form 1, 2-(5-methoxyisochroman-1-yl)-4,5-dihydro-1H-imidazole] | Form 2 | Unstable | – | – | – | – | – | Form after stability ([1]; listed as D,L-lactic acid): completely
COc1cccc2c1CCOC2C1=NCCN1 (centres unmarked) [Saccharin salt Form 2, 2-(5-methoxyisochroman-1-yl)-4,5-dihydro-1H-imidazole] | Form 2 | Stable | – | – | – | – | – | Physical stability ([1]; listed as saccharin (form 2)): remained stable
COc1cccc2c1CCOC2C1=NCCN1 (centres unmarked) [Glutaric acid salt Form 1, 2-(5-methoxyisochroman-1-yl)-4,5-dihydro-1H-imidazole] | Form 1 | Stable | 78.7% | 17.7 | 2.0% | 94.4 | 96.4% | Physical stability ([1]; listed as glutaric acid): remained stable
COc1cccc2c1CCOC2C1=NCCN1 (centres unmarked) [Fumaric acid salt Form 1, 2-(5-methoxyisochroman-1-yl)-4,5-dihydro-1H-imidazole] | Form 1 | Stable | – | – | – | – | – | Physical stability ([1]; listed as fumaric acid (form 1)): remained stable
COc1cccc2c1CCOC2C1=NCCN1 (centres unmarked) [Saccharin salt Form 1, 2-(5-methoxyisochroman-1-yl)-4,5-dihydro-1H-imidazole] | Form 1 + Form 2 | – | – | – | – | – | – | Crystalline form conversion on storage ([1]; 40° C., 75% RH for 3 weeks): partially conversion into form 2; Form after stability ([1]; listed as saccharin (form 1)): changed partially
COc1cccc2c1CCOC2C1=NCCN1 (centres unmarked) [2-Ketoglutaric acid salt Form 1, 2-(5-methoxyisochroman-1-yl)-4,5-dihydro-1H-imidazole] | Amorphous | Unstable | – | – | – | – | – | Form after stability ([1]; listed as 2-ketoglutaric acid): turned into amorphous phase
COc1cccc2c1CCOC2C1=NCCN1 [L-Glutamic acid salt Form 1, 2-(5-methoxyisochroman-1-yl)-4,5-dihydro-1H-imidazole] | extra peaks in the XRPD pattern | – | – | – | – | – | – | –
COc1cccc2c1CCOC2C1=NCCN1 (centres unmarked) [Saccharin salt, 2-(5-methoxyisochroman-1-yl)-4,5-dihydro-1H-imidazole] | – | – | 95.0% | 2.1 | 91.5% | 5.6 | 97.1% | –
